Data from PMC10510756 (Chemical Science, 2023).

Assays:
[1] = system: SAM-VI RS (RNA, riboswitch) GGCAUUGUGCCUCGCAUUGCACUCCGCGGGGCGAUAAGUCCUGAAAAGGGAUGUC; assay: MST, SybrGold (1x) non-covalent dye; details: 100 mM KCl, 25 mM MgCl2; 50 mM Tris-HCl pH 7.5, 25 °C, 100 nM RNA
[2] = system: Cy5-SAM-VI RS (RNA, riboswitch) GGCAUUGUGCCUCGCAUUGCACUCCGCGGGGCGAUAAGUCCUGAAAAGGGAUGUC; assay: MST, 5'-Cy5-labelled RNA; details: 100 mM KCl, 25 mM MgCl2; 50 mM Tris-HCl pH 7.5, 25 °C, 20 nM RNA
[3] = system: SAM-I RS (RNA, riboswitch) GGCUUAUCAAGAGAGGGGGAGCGACUGGCGCGAAGAACCCCGGCAACCAGAAAUGGUGCCAAUUCCUGCAGCGGAAACGUUGAAAGAUGAGCCG; assay: MST, SybrGold (1x) non-covalent dye; details: 100 mM KCl, 25 mM MgCl2; 50 mM Tris-HCl pH 7.5, 25 °C, 100 nM RNA
[4] = system: Neomycin aptamer (RNA, aptamer) GGCUGCUUGUCCUUUAAUGGUCCAGUC; assay: MST, Syto 59 (1x) non-covalent dye; details: 100 mM KCl, 25 mM MgCl2; 50 mM Tris-HCl pH 7.5, 25 °C, 100 nM RNA; apparent; below tight-binding limit
[5] = system: PreQ1 RS (RNA, riboswitch) GGAGAGGUUCUAGCUACACCUCUAUAAAAAACUAA; assay: MST, SybrGold (1x) non-covalent dye; details: 100 mM KCl, 25 mM MgCl2; 50 mM Tris-HCl pH 7.5, 25 °C, 100 nM RNA; apparent; near tight-binding limit
METTL3/14 = METTL3/14 (Homo sapiens, UniProt Q86U44)
Sequence of METTL3/14 (Q86U44 2-580): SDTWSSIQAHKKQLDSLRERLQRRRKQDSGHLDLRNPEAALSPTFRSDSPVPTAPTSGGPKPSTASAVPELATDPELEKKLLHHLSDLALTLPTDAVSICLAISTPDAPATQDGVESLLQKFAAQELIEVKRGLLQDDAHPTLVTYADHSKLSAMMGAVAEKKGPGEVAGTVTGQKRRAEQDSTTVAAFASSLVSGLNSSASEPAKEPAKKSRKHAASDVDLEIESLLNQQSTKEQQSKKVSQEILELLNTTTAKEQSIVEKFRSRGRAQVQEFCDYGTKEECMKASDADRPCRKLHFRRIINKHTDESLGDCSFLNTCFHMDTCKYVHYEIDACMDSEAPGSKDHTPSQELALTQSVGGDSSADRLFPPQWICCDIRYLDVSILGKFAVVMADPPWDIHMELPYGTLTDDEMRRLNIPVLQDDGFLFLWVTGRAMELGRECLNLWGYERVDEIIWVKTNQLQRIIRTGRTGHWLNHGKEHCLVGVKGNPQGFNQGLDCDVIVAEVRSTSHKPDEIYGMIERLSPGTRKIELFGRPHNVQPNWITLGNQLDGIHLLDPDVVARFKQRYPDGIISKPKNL
Sequence of METTL3/14 (Q9HCE5 whole entry partner): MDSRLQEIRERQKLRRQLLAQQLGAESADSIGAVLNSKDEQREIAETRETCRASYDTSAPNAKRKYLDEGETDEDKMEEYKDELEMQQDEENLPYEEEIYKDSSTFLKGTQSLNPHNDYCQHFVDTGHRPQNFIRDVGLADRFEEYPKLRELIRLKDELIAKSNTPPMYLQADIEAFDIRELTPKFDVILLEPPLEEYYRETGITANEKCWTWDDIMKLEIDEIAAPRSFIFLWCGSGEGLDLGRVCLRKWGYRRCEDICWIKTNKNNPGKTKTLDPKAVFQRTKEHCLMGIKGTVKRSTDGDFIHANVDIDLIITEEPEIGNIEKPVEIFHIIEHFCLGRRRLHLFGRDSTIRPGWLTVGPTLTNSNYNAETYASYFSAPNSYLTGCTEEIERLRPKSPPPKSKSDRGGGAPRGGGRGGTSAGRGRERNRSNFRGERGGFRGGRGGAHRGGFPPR

SMILES | KD [1] | KD [2] | KD [3] | also measured
NC[C@@H]1O[C@H](O[C@H]2[C@@H](O)[C@H](O[C@@H]3[C@@H](O)[C@H](N)C[C@H](N)[C@H]3O[C@H]3O[C@H](CN)[C@@H](O)[C@H](O)[C@H]3N)O[C@@H]2CO)[C@H](N)[C@@H](O)[C@@H]1O |  |  |  | KD,app [4]: 29.6 nM
NCc1c[nH]c2nc(N)[nH]c(=O)c12 |  |  |  | KD,app [5]: 44.8 nM
C[S+](CC[C@H](N)C(=O)[O-])C[C@H]1O[C@@H](n2cnc3c(N)ncnc32)[C@H](O)[C@@H]1O (stereo partly drawn) [S-adenosylmethionine] |  |  |  | Km (METTL3/14): 0.226 µM

Now from value to compound, other results behind:

KD [1] | KD [2] | KD [3] | SMILES | also measured
953 nM | 699 ± 185 nM | 157 nM | C[S+](CC[C@H](N)C(=O)O)C[C@H]1O[C@@H](n2cnc3c(N)ncnc32)[C@H](O)[C@@H]1O (stereo partly drawn) | 
10000 nM | 23600 ± 7000 nM | 137000 nM | Nc1ncnc2c1ncn2[C@@H]1O[C@H](CSCC[C@H](N)C(=O)O)[C@@H](O)[C@H]1O | 
